Experimental data from publication PMC12169669, “Regio- and Stereoselective Synthesis of Nitro-fatty Acids as NRF2 Pathway Activators Working under Ambient or Hypoxic Conditions” (Journal of Medicinal Chemistry, 2025).

Tests used:
Hmox1 = test: Relative gene expression of Hmox1 in BMCs (qRT-PCR); format: cell-based, mouse; conditions: 2 μM, 4 h; for Hmox1 relative expression: 4% and 1% oxygen
Description: Primary bone marrow cells (BMCs) were isolated from 8–12-week-old male C57BL/6 mice (25–30 g, AnLab, Czech Republic). Mice were housed under standard conditions. BMCs were isolated as follows: The day before isolation, phosphate-buffered saline (PBS), ACK Lysis Buffer (A10492-01, Thermo Fisher Scientific), and Iscove’s Modified Dulbecco’s Medium (IMDM) (12440-053, Thermo Fisher Scientific) were placed in a hypoxic chamber (InvivO2 400, Baker Ruskinn, UK) with adjustable oxygen control to equilibrate for the target oxygen concentrations. On the day of the experiment, animals were euthanized using ketamine/xylazine, and bilateral femurs were extracted. BMCs were flushed with hypoxic (1% O2 unless stated otherwise) PBS supplemented with 2% fetal bovine serum (FBS; low endotoxin, FB-1101/500, Biosera, France). After hemolysis at room temperature using hypoxic ACK Lysis Buffer, nucleated BMCs were washed with hypoxic PBS + 2% FBS and counted using a TC20 automated cell counter (Bio-Rad). Cells were kept under hypoxic conditions prior to treatment. The medium for BMC culture, consisting of IMDM with 2% FBS and 1% penicillin/streptomycin (LM-A4118/100, Biosera, France), was supplemented with 10 ng/mL mouse IL-3, 10 ng/mL mouse IL-6, and 50 ng/mL mouse stem cell factor - SCF (213-13, 216-16, and 250-03, respectively; all from PeproTech). Cells were cultured at 37 °C in a humidified atmosphere containing 5% CO2 and the specified oxygen concentrations (21%, 4%, or 1%).
For the relative gene expression of nuclear factor erythroid 2-related factor 2 (NRF2, encoded by Nfe2l2), heme oxygenase-1 (Hmox1), and Glutamate-Cysteine Ligase Modifier Subunit (Gclm) (Mm00477784_m1, Mm00516005_m1, Mm00514996_m1, all from Thermo Fisher Scientific), mouse BMC (3 × 10^6 cells) were cultivated on a 6-well plate in 1.5 mL of complete media (see Isolation and culture of primary cells), and then incubated with 2 μM NO2FAs or control (medium only) for 4 h at the specified oxygen levels (21%, 4%, or 1%). Then, the adherent and nonadherent cells were washed with PBS and lysed using a NucleoSpin RNA Plus kit (740984, Machery-Nagel; Germany). The concentration and purity of isolated RNA was assessed using an Infinite M200 Pro spectrophotometer (Tecan, Austria). Total RNA (0.2 μg) was reversely transcribed into first strand cDNA using a RevertAid First Strand cDNA Synthesis kit according to the manufacturer’s protocol (K1622, Thermo Fisher Scientific). qRT-PCR reactions were performed in a LightCycler480 instrument (Roche; Switzerland) using TaqMan FastAdvanced Master Mix for qPCR (4444557, Thermo Fisher Scientific) and the following program was used: uracil-N-glycosylase activation step at 50 °C for 2 min, an initial denaturation step at 95 °C for 2 min, followed by 45 cycles (95 °C for 3 s, 60 °C for 30 s), and a final cooling step at 40 °C for 1 min. Data were normalized to ribosomal protein L32 (Rpl32, Mm02528467_g1, Thermo Fisher Scientific) and presented as 2^–Δcq.
3 Expression of NRF2 and its target genes in response to NO2FA derivatives. BMCs were cultured under 4% or 1% oxygen conditions and treated for 4 h with the tested NO 2 FAs (2 μM) or medium followed by quantification of (A) Nfe2l2, (B) Hmox1, and (C) Gclm with PCR. Results are presented as relative expression across different oxygen culture conditions. Dimethyl fumarate (DMF) was added as a control. Data are expressed as mean ± SD from 3 to 7 independent experiments (n = 3–7), analyzed with one-way ANOVA with Dunnett’s multiple comparisons test compared to the controls (*p < 0.05; **p < 0.01; ***p < 0.001).
Relative expression of (A) Hmox1 and (B) Gclm in different oxygen […]
Figure S 2. Relative expression of (A) Hmox1 and (B) Gclm in different oxygen conditions. BMCs were cultured under varying oxygen conditions (21, 4, and 1%) and treated for 4 hours with the tested 10 -NO₂OA (2 µM) or medium followed by quantification […]
with PCR. […]

NRF2 = NRF2 translocation assay (nuclear fraction, Western blot); format: cell-based, mouse; conditions: BMCs, 2 μM, 1 h, 1% oxygen; for translocation of NRF2 to the nucleus, fold change relative to control: nuclear fraction
Experimental: For the NRF2 translocation assays, 5.5 × 10^6 BMCs were incubated in 0.5 mL of complete medium with 2 μM NO2FAs or the control for 1 h in 1.5 mL microtubes, but only at 1% oxygen. Cytosol, membrane and nuclear cell compartments were isolated with a Cell Fractionation Kit (9038, Cell Signaling Technology) according to the manufacturer’s instructions. Equal volumes of nuclear lysates (20 μL/well) were loaded onto 7–15% SDS-polyacrylamide gels. Histone H3 was used as the loading control for the nuclear fraction.
5 Subcellular localization of NRF2. NO 2 FA derivatives promote nuclear translocation of NRF2 in mouse BMCs. BMCs were cultured under 1% oxygen conditions and treated for 1 h with 2 μM of 10-NO 2 OA, 10-NO 2 LA, or 10-NO 2 SA. A cell fractionation kit was used to isolate the nuclear fraction (A), followed by the detection of NRF2 and histone H3 (used as a control nuclear protein). Western blot results (A) are shown as the fold change relative to control cells. Data are expressed as mean ± SD from two independent experiments (n = 2). Statistical analysis was performed using one-way ANOVA with Dunnett’s multiple comparisons test (* p < 0.05; *** p < 0.001). (B) Representative immunocytochemistry staining of BMCs with NRF2 antibody. BMCs were cultured in 1% oxygen followed by NRF2 and nuclei (DAPI) staining. Treatment with 10-NO2OA increased the colocalization of NRF2 with the nucleus (scale bar: 20 μm).

Structure (SMILES) | Hmox1 relative expression (Hmox1) | translocation of NRF2 to the nucleus, fold change relative to control (NRF2) | Hmox1 expression at 1% oxygen compared to 21% (Hmox1; 1% vs 21% oxygen) | NRF2 translocation activity relative to 10-NO2LA (NRF2)
CCCCCCCC/C=C(\CCCCCCCC(=O)O)[N+](=O)[O-] [9-NO2OA, (9E)-9-Nitro-oleic Acid] | significant upregulation | – | – | –
CCCCCC/C=C/C=C(\CCCCCCCC(=O)O)[N+](=O)[O-] [9-NO2cLA, (9E,11E)-9-Nitro Conjugated Linoleic Acid] | upregulation that was dependent on oxygen levels | – | – | –
CCCCC/C=C\C/C(=C\CCCCCCCC(=O)O)[N+](=O)[O-] [10-NO2LA, (9E,12Z)-10-Nitro Linoleic Acid] | upregulation that was dependent on oxygen levels or specific target genes | significantly increased | – | –
CCCCCCCC/C(=C\CCCCCCCC(=O)O)[N+](=O)[O-] [10-NO2OA, (9E)-10-Nitro-oleic Acid] | significant upregulation | significantly increased | significantly upregulated | ca. 1.7 fold
CCCCCCCCC(CCCCCCCCC(=O)O)[N+](=O)[O-] (stereo not shown) [10-NO2SA, 10-Nitro Stearic acid] | no effects | no effects | – | –
